Assay results reported in ChEMBL document CHEMBL3997804, “Evaluation of a series of 2-napthamide derivatives as inhibitors of the drug efflux pump AcrB for the reversal of antimicrobial resistance” (Bioorg Med Chem Lett, 2017).
Activity calls are given as the source filed them. No cut-off for these calls is given here. Peptide text beside a SMILES is read from it. * marks the point of attachment. βNA = c1ccc2cc(N*)ccc2c1

What was measured:
Escherichia coli BW25113 [1] = assay: Inhibition of AcrB in wild-type drug resistant Escherichia coli BW25113 assessed as potentiation of chloramphenicol-induced antibacterial activity after 18 hrs by checkerboard method
Escherichia coli BW25113 [2] = assay: Inhibition of AcrB in wild-type drug resistant Escherichia coli BW25113 assessed as potentiation of tetraphenyl phosphonium chloride-induced antibacterial activity after 18 hrs by checkerboard method
Escherichia coli BW25113 [3] = assay: Inhibition of AcrB in wild-type drug resistant Escherichia coli BW25113 assessed as potentiation of erythromycin-induced antibacterial activity after 18 hrs by checkerboard method
Escherichia coli [4] = assay: Growth inhibition of wild-type drug-resistant Escherichia coli BW25113 after 18 hrs by resazurin dye based broth microdilution method
Escherichia coli [5] = assay: Effect on rifampicin-induced antibacterial activity against wild-type drug resistant Escherichia coli BW25113 after 18 hrs by checkerboard method; assay type: functional
Escherichia coli BW25113 [6] = assay: Inhibition of AcrB in drug resistant Escherichia coli BW25113 assessed as reduction in nile red efflux at 500 uM pretreated for 15 mins followed by nile red addition measured after 3 hrs for 200 secs in presence of glucose by fluorimetric method
Escherichia coli BW25113 [7] = assay: Inhibition of […] in drug resistant Escherichia coli BW25113 assessed as increase in outer membrane permeability by measuring increase nitrocefin hydrolysis at 512 ug/ml measured over 30 mins in presence of CCCP by spectrophotometric method
Escherichia coli BW25113 [8] = assay: Inhibition of AcrB in wild-type drug resistant Escherichia coli BW25113 assessed as potentiation of chloramphenicol-induced antibacterial activity by measuring chloramphenicol MIC at 200 ug/ml after 18 hrs by checkerboard method (reference value: 8 ug/ml)
Escherichia coli [9] = assay: Effect on rifampicin-induced antibacterial activity against wild-type drug resistant Escherichia coli BW25113 assessed as rifampicin MIC at 200 ug/ml after 18 hrs by checkerboard method (reference value: 16 ug/ml); assay type: functional; details: BW25113, 18 h
Escherichia coli BW25113 [10] = assay: Inhibition of AcrB in wild-type drug resistant Escherichia coli BW25113 assessed as potentiation of tetraphenyl phosphonium chloride-induced antibacterial activity by measuring tetraphenyl phosphonium chloride MIC at 200 ug/ml after 18 hrs by checkerboard method (reference value: 1024 ug/ml)
Escherichia coli BW25113 [11] = assay: Inhibition of AcrB in wild-type drug resistant Escherichia coli BW25113 assessed as potentiation of erythromycin-induced antibacterial activity by measuring erythromycin MIC at 200 ug/ml after 18 hrs by checkerboard method (reference value: 128 ug/ml)
Escherichia coli BW25113 [12] = assay: Inhibition of AcrB in drug resistant Escherichia coli BW25113 assessed as reduction in nile red efflux at 200 uM pretreated for 15 mins followed by nile red addition measured after 3 hrs for 200 secs in presence of glucose by fluorimetric method

SMILES | inhibition (Escherichia coli BW25113 [1]) | inhibition (Escherichia coli BW25113 [2]) | inhibition (Escherichia coli BW25113 [3]) | growth inhibition (GI) (Escherichia coli [4]) | Activity (Escherichia coli [5]) | inhibition (Escherichia coli BW25113 [6]) | inhibition (Escherichia coli BW25113 [7]) | MIC (Escherichia coli BW25113 [8]) [µg/mL] | MIC (Escherichia coli [9]) [µg/mL] | MIC (Escherichia coli BW25113 [10]) [µg/mL] | MIC (Escherichia coli BW25113 [11]) [µg/mL] | inhibition (Escherichia coli BW25113 [12])
NC(=O)c1cc(OCc2ccc(F)cc2)c2ccccc2c1 | inactive | inactive | inactive | Non-Toxic | inactive | – | – | – | – | – | – | –
NC(=O)c1cc(OCc2cccc(F)c2)c2ccccc2c1 | inactive | inactive | inactive | Non-Toxic | inactive | – | – | – | – | – | – | –
CCOC(=O)COc1cc(C(N)=O)cc2ccccc12 | inactive | inactive | inactive | Non-Toxic | inactive | – | – | – | – | – | – | –
CCCCC(CC)COc1cc(C(N)=O)cc2ccccc12 (stereo not drawn) | inactive | inactive | inactive | Non-Toxic | inactive | – | – | – | – | – | – | –
CCOC(=O)CCCOc1cc(C(N)=O)cc2ccccc12 | inactive | inactive | inactive | Non-Toxic | inactive | – | – | – | – | – | – | –
NC(=O)c1cc(OCc2ccccc2)c2ccccc2c1 | Active | – | – | Non-Toxic | – | Active | Active | – | – | – | – | –
N=C(N)NCCC[C@H](NC(=O)[C@@H](N)Cc1ccccc1)C(=O)Nc1ccc2ccccc2c1 [PABETAN] (H-Phe-Arg-βNA) | – | – | – | – | – | – | – | 2 | 1 | 128 | 16 | –
NC(=O)c1cc(OCC2CCCC2)c2ccccc2c1 | inactive | inactive | inactive | Non-Toxic | inactive | – | – | – | – | – | – | –
Cc1ccccc1COc1cc(C(N)=O)cc2ccccc12 | inactive | inactive | inactive | Non-Toxic | inactive | – | – | – | – | – | – | –
CCC(C)Oc1cc(C(N)=O)cc2ccccc12 (stereo not drawn) | inactive | inactive | inactive | Non-Toxic | inactive | – | – | – | – | – | – | –
NC(=O)c1cc(OCc2ccccc2Cl)c2ccccc2c1 | inactive | inactive | inactive | Non-Toxic | inactive | – | – | – | – | – | – | –
CC(C)COc1cc(C(N)=O)cc2ccccc12 | – | – | Active | Non-Toxic | – | Active | Active | – | – | – | – | –
NC(=O)c1cc(OCc2ccccc2F)c2ccccc2c1 | inactive | inactive | inactive | Non-Toxic | inactive | – | – | – | – | – | – | Active
CCOC(=O)C(C)Oc1cc(C(N)=O)cc2ccccc12 (stereo not drawn) | inactive | inactive | inactive | Non-Toxic | inactive | – | – | – | – | – | – | –
